From patent US20240116985A1, “STAPLED PEPTIDES AND METHODS THEREOF” (priority 2020, published 2024)
pIC50: −log10 of the molar value. Like-named read-outs stand apart in the source and are kept apart here.

Key:
[1] = target: T1, full-length beta-Catenin (Uniprot ID P35222) (Homo sapiens, UniProt P35222); assay: Fluorescence polarization IC50 (beta-catenin / 5FAM-TCF4 10-53 competition); assay type: binding; conditions: fluorescence polarization; read-out: beta-Catenin FP IC50
T1 construct: 10 nM full-length beta-Catenin (Uniprot ID P35222)
T1 sequence (P35222 1-781): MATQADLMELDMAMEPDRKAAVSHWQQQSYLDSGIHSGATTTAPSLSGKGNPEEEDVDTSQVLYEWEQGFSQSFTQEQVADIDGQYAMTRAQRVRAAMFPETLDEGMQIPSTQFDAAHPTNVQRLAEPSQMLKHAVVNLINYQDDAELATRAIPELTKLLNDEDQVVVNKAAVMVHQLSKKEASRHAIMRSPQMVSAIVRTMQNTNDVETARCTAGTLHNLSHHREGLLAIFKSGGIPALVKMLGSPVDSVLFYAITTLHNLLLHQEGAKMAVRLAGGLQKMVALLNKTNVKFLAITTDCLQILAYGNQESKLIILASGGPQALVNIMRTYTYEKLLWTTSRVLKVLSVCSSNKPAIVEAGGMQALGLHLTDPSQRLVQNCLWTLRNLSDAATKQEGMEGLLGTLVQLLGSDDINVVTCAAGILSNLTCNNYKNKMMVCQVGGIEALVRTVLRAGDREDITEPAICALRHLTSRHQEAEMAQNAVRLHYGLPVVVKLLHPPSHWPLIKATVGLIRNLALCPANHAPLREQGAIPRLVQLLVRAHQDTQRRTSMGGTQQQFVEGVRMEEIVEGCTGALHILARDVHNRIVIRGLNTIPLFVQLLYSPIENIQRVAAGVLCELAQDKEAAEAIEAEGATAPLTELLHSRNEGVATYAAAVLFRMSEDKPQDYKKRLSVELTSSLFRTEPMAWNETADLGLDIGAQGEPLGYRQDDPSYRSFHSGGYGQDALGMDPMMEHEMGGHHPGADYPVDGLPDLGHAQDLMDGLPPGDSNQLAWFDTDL

[2] = target: T2, beta-catenin/TCF4 engagement (Homo sapiens, UniProt P35222); assay: Nano-BRET target engagement assay (B-cat-Halo & TCF4-Luc in HEK293 cells); assay type: cell-based; conditions: read-out: NanoBRET Abs IC50
T2 construct: expressed in transfected cells; host or cells: HEK293
T2 sequence (P35222 1-781): T1 sequence (P35222 1-781)

SMILES: CC(=O)N1CCC[C@]12CC=CCC1(CC=CCCCCCOC(=O)N3CC[C@](C(=O)N[C@@H](Cc4ccsc4)C(=O)N[C@@H](Cc4csc5ccccc45)C(=O)N[C@@H](CCC(N)=O)C(N)=O)(C3)NC(=O)[C@H](CC(C)C)NC(=O)[C@H](Cc3ccccc3)NC(=O)[C@H](C)NC(=O)[C@H](C)NC(=O)[C@H](CC(=O)O)NC(=O)[C@H](CC(=O)O)NC1=O)NC(=O)[C@H](CC(C)(C)C)NC(=O)[C@H](CC(=O)O)NC2=O (single isomer, unassigned) [I-2158, Ac-PL3-Asp-Npg-B3-Asp-Asp-Ala-Ala-Phe-Leu-PyrS4-3Thi-BztA-Gln-NH2]
- pIC50 [1]: 6.67
- pIC50 [2]: < 4.70

SMILES: CCNC(=O)[C@H](CCC(N)=O)NC(=O)[C@H](Cc1csc2ccccc12)NC(=O)[C@H](Cc1ccccc1Cl)NC(=O)[C@]12CCN(C1)C(=O)OCCCC=CCCCC1(CCCC=CC[C@]3(CCCN3C(C)=O)C(=O)N[C@@H](CC(=O)O)C(=O)N[C@@H](CC(C)(C)C)C(=O)N1)C(=O)N[C@@H](CC(=O)O)C(=O)N[C@@H](CC(=O)O)C(=O)N[C@@H](C)C(=O)N[C@@H](C)C(=O)N[C@@H](Cc1ccccc1)C(=O)N[C@@H](CC(C)C)C(=O)N2 (stereo partly drawn) [I-1248, Ac-PL3-Asp-Npg-B5-Asp-Asp-Ala-Ala-Phe-Leu-PyrS2-2C1F-BztA-Gln-NHEt]
- pIC50 [1]: 7.72
- pIC50 ([2]; absolute IC50): 4.53

SMILES: CC(=O)N1CCC[C@]12CC=CCCCC1(CCCC=CCCCOC(=O)N3CC[C@@](C(=O)N[C@@H](Cc4ccsc4)C(=O)N[C@@H](Cc4csc5ccccc45)C(=O)N[C@@H](CC(C)C)C(N)=O)(C3)NC(=O)[C@H](CC(C)C)NC(=O)[C@H](Cc3ccccc3)NC(=O)[C@H](C)NC(=O)[C@H](C)NC(=O)[C@H](CC(=O)O)NC(=O)[C@H](CC(=O)O)NC1=O)NC(=O)[C@H](CC(C)(C)C)NC(=O)[C@H](CC(=O)O)NC2=O (stereo partly drawn) [I-1409, Ac-PL3-Asp-Npg-B5-Asp-Asp-Ala-Ala-Phe-Leu-PyrS2-3Thi-BztA-Leu-NH2]
- pIC50 [1]: 7.13
- pIC50 ([2]; absolute IC50): 4.62

SMILES: CC(=O)N1CCC[C@]12CC=CCCCC1(CCCC=CCCCOC(=O)N3CC[C@@](C(=O)N[C@@H](Cc4ccsc4)C(=O)N[C@@H](Cc4csc5ccccc45)C(=O)N[C@@H](CCC(N)=O)C(N)=O)(C3)NC(=O)[C@H](CC(C)C)NC(=O)[C@H](Cc3ccccc3)NC(=O)[C@H](CCCN3CCOCC3)NC(=O)[C@H](C)NC(=O)[C@H](CC(=O)O)NC(=O)[C@H](CC(=O)O)NC1=O)NC(=O)[C@H](CC(C)(C)C)NC(=O)[C@H](CC(=O)O)NC2=O (stereo partly drawn) [I-1501, Ac-PL3-Asp-Npg-B5-Asp-Asp-Ala-MorphNva-Phe-Leu-PyrS2-3Thi-BztA-Gln-NH2]
- pIC50 [1]: 7.34
- pIC50 ([2]; absolute IC50): < 4.70

SMILES: CC(=O)N1CCC[C@]12CC=CCCCC1(CCCC=CCCCOC(=O)N3CC[C@@](C(=O)N[C@@H](Cc4ccccc4Cl)C(=O)N[C@@H](Cc4csc5ccccc45)C(=O)N[C@@H](CC(=O)N4CCN(C)CC4)C(N)=O)(C3)NC(=O)[C@H]([C@@H](C)O)NC(=O)[C@H](Cc3ccccc3)NC(=O)[C@H](C)NC(=O)[C@H](C)NC(=O)[C@H](CN(CC(=O)O)CC(F)(F)F)NC(=O)[C@H](CC(=O)O)NC1=O)NC(=O)[C@H](CC(C)(C)C)NC(=O)[C@H](CC(=O)O)NC2=O (stereo partly drawn) [I-1611, Ac-PL3-Asp-Npg-B5-Asp-TfeGA-Ala-Ala-Phe-Thr-PyrS2-2C1F-BztA-MePpzAsn-NH2]
- pIC50 [1]: 8.00
- pIC50 ([2]; absolute IC50): 5.01

SMILES: CC(=O)N1CCC[C@]12CC=CCCCC1(CCCC=CCCCOC(=O)N3CC[C@@](C(=O)N[C@@H](Cc4ccsc4)C(=O)N[C@@H](Cc4csc5ccccc45)C(=O)N[C@@H](CCC(=O)N4CCC(N5CCN(C)CC5)CC4)C(N)=O)(C3)NC(=O)[C@H](CC(C)C)NC(=O)[C@H](Cc3ccccc3)NC(=O)[C@H](C)NC(=O)[C@H](C)NC(=O)[C@H](CN(CC(=O)O)CC(F)(F)F)NC(=O)[C@H](CC(=O)O)NC1=O)NC(=O)[C@H](CC(C)(C)C)NC(=O)[C@H](CC(=O)O)NC2=O (stereo partly drawn) [I-1801, Ac-PL3-Asp-Npg-B5-Asp-TfeGA-Ala-Ala-Phe-Leu-PyrS2-3Thi-BztA-[4MePpzPip]GlnR-NH2]
- pIC50 [1]: 8.15
- pIC50 ([2]; absolute IC50): 4.76

SMILES: CC(C)COC(=O)N1CCC[C@]12CC=CCCCC1(CCCC=CCCCOC(=O)N3CC[C@@](C(=O)N[C@@H](Cc4ccccc4Cl)C(=O)N[C@@H](Cc4csc5ccccc45)C(=O)N[C@@H](C)C(N)=O)(C3)NC(=O)[C@H](CC(C)C)NC(=O)[C@H](Cc3ccccc3)NC(=O)[C@H](C)NC(=O)[C@H](C)NC(=O)[C@H](Cc3cccc(C(=O)O)c3)NC(=O)[C@H](CC(=O)O)NC1=O)NC(=O)[C@H](CC(C)(C)C)NC(=O)[C@H](CC(=O)O)NC2=O (stereo partly drawn) [I-2305, CO2iBu-PL3-Asp-Npg-B5-Asp-3COOHF-Ala-Ala-Phe-Leu-PyrS2-2C1F-BztA-Ala-NH2]
- pIC50 [1]: 7.19
- pIC50 ([2]; absolute IC50): < 4.70

SMILES: CC(=O)N1CCC[C@]12CC=CCCCC1(CCCC=CCCCOC(=O)N3CC[C@@](C(=O)N[C@@H](Cc4ccccc4Cl)C(=O)N[C@@H](Cc4csc5ccccc45)C(=O)N[C@@H](CC(C)C)C(N)=O)(C3)NC(=O)[C@H](CO)NC(=O)[C@H](Cc3ccccc3)NC(=O)[C@H](C)NC(=O)[C@H](C)NC(=O)[C@H](CC(=O)O)NC(=O)[C@H](CC(=O)O)NC1=O)NC(=O)[C@H](CC1CCCCC1)NC(=O)[C@H](CC(=O)O)NC2=O (stereo partly drawn) [I-1138, Ac-PL3-Asp-Cha-B5-Asp-Asp-Ala-Ala-Phe-Ser-PyrS2-2C1F-BztA-Leu-NH2]
- pIC50 [1]: 7.74
- pIC50 ([2]; absolute IC50): 4.70

SMILES: CC(=O)N1CCC[C@]12CC=CCCCC1(CCCC=CCCCOC(=O)N3CC[C@@](C(=O)N[C@@H](Cc4ccsc4)C(=O)N[C@@H](Cc4ccc(Cl)c(Cl)c4)C(=O)N[C@@H](CCC(N)=O)C(N)=O)(C3)NC(=O)[C@H](CC(N)=O)NC(=O)[C@H](Cc3ccccc3)NC(=O)[C@H](C)NC(=O)[C@H](C)NC(=O)[C@H](CC(=O)O)NC(=O)[C@H](CC(=O)O)NC1=O)NC(=O)[C@H](CC(C)(C)C)NC(=O)[C@H](CC(=O)O)NC2=O (stereo partly drawn) [I-2182, Ac-PL3-Asp-Npg-B5-Asp-Asp-Ala-Ala-Phe-Asn-PyrS2-3Thi-34C1F-Gln-NH2]
- pIC50 [1]: 8.30
- pIC50 [2]: 4.95

SMILES: CC(=O)N1CCC[C@]12CC=CCCCC1(CCCC=CCCCOC(=O)N3CC[C@@](C(=O)N[C@@H](Cc4ccsc4)C(=O)N[C@@H](Cc4csc5ccccc45)C(=O)N[C@@H](C)C(N)=O)(C3)NC(=O)[C@H](CC(C)C)NC(=O)[C@H](Cc3ccccc3)NC(=O)[C@H](C)NC(=O)C(C)(C)NC(=O)[C@H](Cc3ccc(F)c(C(=O)O)c3)NC(=O)[C@H](CC(=O)O)NC1=O)NC(=O)[C@H](CC(C)(C)C)NC(=O)[C@H](CC(=O)O)NC2=O (stereo partly drawn) [I-2207, Ac-PL3-Asp-Npg-B5-Asp-4F3COOHF-Aib-Ala-Phe-Leu-PyrS2-3Thi-BztA-Ala-NH2]
- pIC50 [1]: 7.80
- pIC50 ([2]; absolute IC50): 5.49

SMILES: CC(=O)N1CCC[C@]12CC=CCCCC1(CCCC=CCCCOC(=O)N3CC[C@@](C(=O)N[C@@H](Cc4ccccc4C(F)(F)F)C(=O)N[C@@H](Cc4csc5ccccc45)C(=O)N[C@@H](C)C(N)=O)(C3)NC(=O)[C@H](CC(C)C)NC(=O)[C@H](Cc3ccccc3)NC(=O)[C@H](C)NC(=O)[C@H](CCC(N)=O)NC(=O)[C@H](Cn3cc(CC(C)(C)C(=O)O)nn3)NC(=O)[C@H](CC(=O)O)NC1=O)NC(=O)[C@H](CC(C)(C)C)NC(=O)[C@H](CC(=O)O)NC2=O (stereo partly drawn) [I-2368, Ac-PL3-Asp-Npg-B5-Asp-[CH2CMe2CO2H]TriAzDap-Gln-Ala-Phe-Leu-PyrS2-2F3MeF-BztA-Ala-NH2]
- pIC50 [1]: 8.30
- pIC50 ([2]; absolute IC50): 5.30

SMILES: CC(=O)N1CCC[C@]12CC=CCCCC1(CCCC=CCCCOC(=O)N3CC[C@@](C(=O)N[C@@H](Cc4ccccc4C(F)(F)F)C(=O)N[C@@H](Cc4csc5ccccc45)C(=O)N[C@@H](CCC(N)=O)C(N)=O)(C3)NC(=O)[C@H](CC(C)C)NC(=O)[C@H](Cc3ccccc3)NC(=O)[C@H](C)NC(=O)[C@H](C)NC(=O)[C@H](Cc3cc(C(=O)O)cc(C(C)C)c3)NC(=O)[C@H](CC(=O)O)NC1=O)NC(=O)[C@H](CC(C)(C)C)NC(=O)[C@H](CC(=O)O)NC2=O (stereo partly drawn) [I-2430, Ac-PL3-Asp-Npg-B5-Asp-5iPr3COOHF-Ala-Ala-Phe-Leu-PyrS2-2F3MeF-BztA-Gln-NH2]
- pIC50 [1]: 7.49
- pIC50 ([2]; absolute IC50): 5.35

SMILES: CC(=O)N1CCC[C@]12CC=CCCCC1(CCCC=CCCCOC(=O)N3CC[C@@](C(=O)N[C@@H](Cc4ccsc4)C(=O)N[C@@H](Cc4csc5ccccc45)C(=O)N[C@@H](CC(N)=O)C(=O)N[C@@H](C)C(=O)N[C@@H](CC(C)C)C(=O)N[C@@H](CC(C)C)C(N)=O)(C3)NC(=O)[C@H](CC(C)C)NC(=O)[C@H](Cc3ccccc3)NC(=O)[C@H](C)NC(=O)[C@H](C)NC(=O)[C@H](Cc3cccc(C(=O)O)c3)NC(=O)[C@H](CC(=O)O)NC1=O)NC(=O)[C@H](CC(C)(C)C)NC(=O)[C@H](CC(=O)O)NC2=O (stereo partly drawn) [I-2277, Ac-PL3-Asp-Npg-B5-Asp-3COOHF-Ala-Ala-Phe-Leu-PyrS2-3Thi-BztA-Asn-Ala-Leu-Leu-NH2]
- pIC50 [1]: 6.94
- pIC50 ([2]; absolute IC50): 5.64
